Experimental data reported in ChEMBL document CHEMBL3792335, “L-Aspartic and l-glutamic acid ester-based ProTides of anticancer nucleosides: Synthesis and antitumoral evaluation” (Bioorg Med Chem Lett, 2016).
pEC50: −log10 of the molar value.

Tested on: not listed separately
Assay: Cytotoxicity against human PC3 cells assessed as reduction in cell viability after 72 hrs by MTS assay
Format: functional, cell-based
Settings: PC-3, 72 h

Compared with `CC(C)CCOC(=O)C[C@H](NP(=O)(OC[C@H]1O[C@@H](n2cc(/C=C/Br)c(=O)[nH]c2=O)C[C@@H]1O)Oc1ccccc1)C(=O)OCCC(C)C` (stereo not given in full), `CC(C)CCOC(=O)C[C@H](NP(=O)(OC[C@H]1O[C@@H](n2cc(I)c(=O)[nH]c2=O)C[C@@H]1O)Oc1ccccc1)C(=O)OCCC(C)C` (stereo not given in full) is 0.42 log units lower in pEC50: 4.90 for the first, 4.48 for the second.

First: O=c1[nH]c(=O)n([C@H]2C[C@H](O)[C@@H](CO)O2)cc1I [IDOXURIDINE]
Second: O=c1[nH]c(=O)n([C@H]2C[C@H](O)[C@@H](CO)O2)cc1F [FLOXURIDINE]
The pEC50 of the first is lower: less than 4.00 for the first, 4.06 for the second. The second is the more potent here.

Compared with `CC(C)CCOC(=O)CC[C@H](NP(=O)(OC[C@H]1O[C@@H](n2ccc(N)nc2=O)C(F)(F)[C@@H]1O)Oc1ccccc1)C(=O)OCCC(C)C` (stereo not given in full), `CC(C)CCOC(=O)C[C@H](NP(=O)(OC[C@H]1O[C@@H](n2ccc(N)nc2=O)C(F)(F)[C@@H]1O)Oc1ccccc1)C(=O)OCCC(C)C` (stereo not given in full) is 0.50 log units higher in pEC50: 4.96 for the first, 5.46 for the second.

Going from `CC(C)CCOC(=O)C[C@H](NP(=O)(OC[C@H]1O[C@@H](n2cc(F)c(=O)[nH]c2=O)C[C@@H]1O)Oc1ccccc1)C(=O)OCCC(C)C` (stereo not given in full) to `CC(C)CCOC(=O)C[C@H](NP(=O)(OC[C@H]1O[C@@H](n2ccc(N)nc2=O)C(F)(F)[C@@H]1O)Oc1ccccc1)C(=O)OCc1ccccc1` (stereo not given in full), the pEC50 rises from 4.64 to 5.44 (0.80 log units).

Going from `CC(C)CCOC(=O)[C@H](CC(=O)OCc1ccccc1)NP(=O)(OC[C@H]1O[C@@H](n2ccc(N)nc2=O)C(F)(F)[C@@H]1O)Oc1ccccc1` (stereo not given in full) to `CCOC(=O)CC[C@H](NP(=O)(OC[C@H]1O[C@@H](n2ccc(N)nc2=O)C(F)(F)[C@@H]1O)Oc1ccccc1)C(=O)OCC` (stereo not given in full), the pEC50 rises from 5.42 to 5.64 (0.22 log units). The second is the more potent here.

First: O=c1[nH]c(=O)n([C@H]2C[C@H](O)[C@@H](CO)O2)cc1/C=C/Br [BRIVUDINE]
Second: Nc1ccn([C@@H]2O[C@H](CO)[C@@H](O)C2(F)F)c(=O)n1 [GEMCITABINE]
The pEC50 of the first is lower: less than 4.00 for the first, 7.19 for the second.

Tested on: not listed separately
Assay: Cytotoxicity against human U87 cells assessed as reduction in cell viability after 72 hrs by MTS assay
Format: functional, cell-based, U-87MG ATCC
Settings: U-87 MG

Going from `CC(C)CCOC(=O)C[C@H](NP(=O)(OC[C@H]1O[C@@H](n2cc(/C=C/Br)c(=O)[nH]c2=O)C[C@@H]1O)Oc1ccccc1)C(=O)OCCC(C)C` (stereo not given in full) to `CC(C)CCOC(=O)C[C@H](NP(=O)(OC[C@H]1O[C@@H](n2cc(I)c(=O)[nH]c2=O)C[C@@H]1O)Oc1ccccc1)C(=O)OCCC(C)C` (stereo not given in full), the pEC50 falls from 4.89 to 4.42 (0.47 log units).

First: O=c1[nH]c(=O)n([C@H]2C[C@H](O)[C@@H](CO)O2)cc1I [IDOXURIDINE]
Second: O=c1[nH]c(=O)n([C@H]2C[C@H](O)[C@@H](CO)O2)cc1F [FLOXURIDINE]
The pEC50 of the first is lower: less than 4.00 for the first, 4.74 for the second.

First: CC(C)CCOC(=O)CC[C@H](NP(=O)(OC[C@H]1O[C@@H](n2ccc(N)nc2=O)C(F)(F)[C@@H]1O)Oc1ccccc1)C(=O)OCCC(C)C (stereo not given in full)
Second: CC(C)CCOC(=O)C[C@H](NP(=O)(OC[C@H]1O[C@@H](n2ccc(N)nc2=O)C(F)(F)[C@@H]1O)Oc1ccccc1)C(=O)OCCC(C)C (stereo not given in full)
The pEC50 of the first is lower: less than 4.00 for the first, 4.36 for the second. The second is the more potent here.

First: CC(C)CCOC(=O)C[C@H](NP(=O)(OC[C@H]1O[C@@H](n2cc(F)c(=O)[nH]c2=O)C[C@@H]1O)Oc1ccccc1)C(=O)OCCC(C)C (stereo not given in full)
Second: CC(C)CCOC(=O)C[C@H](NP(=O)(OC[C@H]1O[C@@H](n2ccc(N)nc2=O)C(F)(F)[C@@H]1O)Oc1ccccc1)C(=O)OCc1ccccc1 (stereo not given in full)
The pEC50 of the first is higher: 5.00 for the first, less than 4.00 for the second.

First: CC(C)CCOC(=O)[C@H](CC(=O)OCc1ccccc1)NP(=O)(OC[C@H]1O[C@@H](n2ccc(N)nc2=O)C(F)(F)[C@@H]1O)Oc1ccccc1 (stereo not given in full)
Second: CCOC(=O)CC[C@H](NP(=O)(OC[C@H]1O[C@@H](n2ccc(N)nc2=O)C(F)(F)[C@@H]1O)Oc1ccccc1)C(=O)OCC (stereo not given in full)
The pEC50 of the first is higher: 4.36 for the first, less than 4.00 for the second.

`O=c1[nH]c(=O)n([C@H]2C[C@H](O)[C@@H](CO)O2)cc1/C=C/Br` [BRIVUDINE] and `Nc1ccn([C@@H]2O[C@H](CO)[C@@H](O)C2(F)F)c(=O)n1` [GEMCITABINE] cannot be ordered by pEC50: less than 4.00 for the first, less than 4.00 for the second.

Tested on: A549
Assay: Cytotoxicity against human A549 cells assessed as reduction in cell viability after 72 hrs by MTS assay
Format: functional, cell-based
Settings: A549, 72 h

First: CC(C)CCOC(=O)C[C@H](NP(=O)(OC[C@H]1O[C@@H](n2cc(/C=C/Br)c(=O)[nH]c2=O)C[C@@H]1O)Oc1ccccc1)C(=O)OCCC(C)C (stereo not given in full)
Second: CC(C)CCOC(=O)C[C@H](NP(=O)(OC[C@H]1O[C@@H](n2cc(I)c(=O)[nH]c2=O)C[C@@H]1O)Oc1ccccc1)C(=O)OCCC(C)C (stereo not given in full)
The pEC50 of the first is 0.43 log units higher: 5.00 for the first, 4.57 for the second. The first is the more potent here.

First: O=c1[nH]c(=O)n([C@H]2C[C@H](O)[C@@H](CO)O2)cc1I [IDOXURIDINE]
Second: O=c1[nH]c(=O)n([C@H]2C[C@H](O)[C@@H](CO)O2)cc1F [FLOXURIDINE]
The pEC50 of the first is lower: less than 4.00 for the first, 4.22 for the second.

`CC(C)CCOC(=O)CC[C@H](NP(=O)(OC[C@H]1O[C@@H](n2ccc(N)nc2=O)C(F)(F)[C@@H]1O)Oc1ccccc1)C(=O)OCCC(C)C` (stereo not given in full) and `CC(C)CCOC(=O)C[C@H](NP(=O)(OC[C@H]1O[C@@H](n2ccc(N)nc2=O)C(F)(F)[C@@H]1O)Oc1ccccc1)C(=O)OCCC(C)C` (stereo not given in full) cannot be ordered by pEC50: less than 4.00 for the first, less than 4.00 for the second.

Compared with `CC(C)CCOC(=O)C[C@H](NP(=O)(OC[C@H]1O[C@@H](n2cc(F)c(=O)[nH]c2=O)C[C@@H]1O)Oc1ccccc1)C(=O)OCCC(C)C` (stereo not given in full), `CC(C)CCOC(=O)C[C@H](NP(=O)(OC[C@H]1O[C@@H](n2ccc(N)nc2=O)C(F)(F)[C@@H]1O)Oc1ccccc1)C(=O)OCc1ccccc1` (stereo not given in full) is lower in pEC50: 4.36 for the first, less than 4.00 for the second.

`CC(C)CCOC(=O)[C@H](CC(=O)OCc1ccccc1)NP(=O)(OC[C@H]1O[C@@H](n2ccc(N)nc2=O)C(F)(F)[C@@H]1O)Oc1ccccc1` (stereo not given in full) and `CCOC(=O)CC[C@H](NP(=O)(OC[C@H]1O[C@@H](n2ccc(N)nc2=O)C(F)(F)[C@@H]1O)Oc1ccccc1)C(=O)OCC` (stereo not given in full) cannot be ordered by pEC50: less than 4.00 for the first, less than 4.00 for the second.

`O=c1[nH]c(=O)n([C@H]2C[C@H](O)[C@@H](CO)O2)cc1/C=C/Br` [BRIVUDINE] and `Nc1ccn([C@@H]2O[C@H](CO)[C@@H](O)C2(F)F)c(=O)n1` [GEMCITABINE] cannot be ordered by pEC50: less than 4.00 for the first, less than 4.00 for the second.

Tested on: Jurkat
Assay: Cytotoxicity against human Jurkat cells assessed as reduction in cell viability after 72 hrs by MTS assay
Format: functional, cell-based
Settings: not given

First: CC(C)CCOC(=O)C[C@H](NP(=O)(OC[C@H]1O[C@@H](n2cc(/C=C/Br)c(=O)[nH]c2=O)C[C@@H]1O)Oc1ccccc1)C(=O)OCCC(C)C (stereo not given in full)
Second: CC(C)CCOC(=O)C[C@H](NP(=O)(OC[C@H]1O[C@@H](n2cc(I)c(=O)[nH]c2=O)C[C@@H]1O)Oc1ccccc1)C(=O)OCCC(C)C (stereo not given in full)
The pEC50 of the first is 0.45 log units higher: 5.28 for the first, 4.83 for the second.

Compared with `O=c1[nH]c(=O)n([C@H]2C[C@H](O)[C@@H](CO)O2)cc1I` [IDOXURIDINE], `O=c1[nH]c(=O)n([C@H]2C[C@H](O)[C@@H](CO)O2)cc1F` [FLOXURIDINE] is 4.38 log units higher in pEC50: 4.10 for the first, 8.48 for the second. The second is the more potent here.

First: CC(C)CCOC(=O)CC[C@H](NP(=O)(OC[C@H]1O[C@@H](n2ccc(N)nc2=O)C(F)(F)[C@@H]1O)Oc1ccccc1)C(=O)OCCC(C)C (stereo not given in full)
Second: CC(C)CCOC(=O)C[C@H](NP(=O)(OC[C@H]1O[C@@H](n2ccc(N)nc2=O)C(F)(F)[C@@H]1O)Oc1ccccc1)C(=O)OCCC(C)C (stereo not given in full)
The pEC50 of the first is 0.61 log units lower: 5.92 for the first, 6.53 for the second.

Going from `CC(C)CCOC(=O)C[C@H](NP(=O)(OC[C@H]1O[C@@H](n2cc(F)c(=O)[nH]c2=O)C[C@@H]1O)Oc1ccccc1)C(=O)OCCC(C)C` (stereo not given in full) to `CC(C)CCOC(=O)C[C@H](NP(=O)(OC[C@H]1O[C@@H](n2ccc(N)nc2=O)C(F)(F)[C@@H]1O)Oc1ccccc1)C(=O)OCc1ccccc1` (stereo not given in full), the pEC50 rises from 5.96 to 6.68 (0.72 log units). The second is the more potent here.

Compared with `CC(C)CCOC(=O)[C@H](CC(=O)OCc1ccccc1)NP(=O)(OC[C@H]1O[C@@H](n2ccc(N)nc2=O)C(F)(F)[C@@H]1O)Oc1ccccc1` (stereo not given in full), `CCOC(=O)CC[C@H](NP(=O)(OC[C@H]1O[C@@H](n2ccc(N)nc2=O)C(F)(F)[C@@H]1O)Oc1ccccc1)C(=O)OCC` (stereo not given in full) is 0.21 log units higher in pEC50: 6.68 for the first, 6.89 for the second.

Compared with `O=c1[nH]c(=O)n([C@H]2C[C@H](O)[C@@H](CO)O2)cc1/C=C/Br` [BRIVUDINE], `Nc1ccn([C@@H]2O[C@H](CO)[C@@H](O)C2(F)F)c(=O)n1` [GEMCITABINE] is higher in pEC50: less than 4.00 for the first, 7.64 for the second. The second is the more potent here.

Tested on: Ramos
Assay: Cytotoxicity against human Ramos cells assessed as reduction in cell viability after 72 hrs by MTS assay
Format: functional, cell-based
Settings: not given

Compared with `CC(C)CCOC(=O)C[C@H](NP(=O)(OC[C@H]1O[C@@H](n2cc(/C=C/Br)c(=O)[nH]c2=O)C[C@@H]1O)Oc1ccccc1)C(=O)OCCC(C)C` (stereo not given in full), `CC(C)CCOC(=O)C[C@H](NP(=O)(OC[C@H]1O[C@@H](n2cc(I)c(=O)[nH]c2=O)C[C@@H]1O)Oc1ccccc1)C(=O)OCCC(C)C` (stereo not given in full) is 0.33 log units lower in pEC50: 5.20 for the first, 4.87 for the second.

Going from `O=c1[nH]c(=O)n([C@H]2C[C@H](O)[C@@H](CO)O2)cc1I` [IDOXURIDINE] to `O=c1[nH]c(=O)n([C@H]2C[C@H](O)[C@@H](CO)O2)cc1F` [FLOXURIDINE], the pEC50 rises from 4.32 to 8.12 (3.80 log units). The second is the more potent here.

Going from `CC(C)CCOC(=O)CC[C@H](NP(=O)(OC[C@H]1O[C@@H](n2ccc(N)nc2=O)C(F)(F)[C@@H]1O)Oc1ccccc1)C(=O)OCCC(C)C` (stereo not given in full) to `CC(C)CCOC(=O)C[C@H](NP(=O)(OC[C@H]1O[C@@H](n2ccc(N)nc2=O)C(F)(F)[C@@H]1O)Oc1ccccc1)C(=O)OCCC(C)C` (stereo not given in full), the pEC50 rises from 5.92 to 6.53 (0.61 log units). The second is the more potent here.

`CC(C)CCOC(=O)C[C@H](NP(=O)(OC[C@H]1O[C@@H](n2cc(F)c(=O)[nH]c2=O)C[C@@H]1O)Oc1ccccc1)C(=O)OCCC(C)C` (stereo not given in full) and `CC(C)CCOC(=O)C[C@H](NP(=O)(OC[C@H]1O[C@@H](n2ccc(N)nc2=O)C(F)(F)[C@@H]1O)Oc1ccccc1)C(=O)OCc1ccccc1` (stereo not given in full) are within 0.2 log units of each other in pEC50: 6.14 for the first, 6.09 for the second.

Going from `CC(C)CCOC(=O)[C@H](CC(=O)OCc1ccccc1)NP(=O)(OC[C@H]1O[C@@H](n2ccc(N)nc2=O)C(F)(F)[C@@H]1O)Oc1ccccc1` (stereo not given in full) to `CCOC(=O)CC[C@H](NP(=O)(OC[C@H]1O[C@@H](n2ccc(N)nc2=O)C(F)(F)[C@@H]1O)Oc1ccccc1)C(=O)OCC` (stereo not given in full), the pEC50 rises from 6.15 to 6.44 (0.29 log units). The second is the more potent here.

Compared with `O=c1[nH]c(=O)n([C@H]2C[C@H](O)[C@@H](CO)O2)cc1/C=C/Br` [BRIVUDINE], `Nc1ccn([C@@H]2O[C@H](CO)[C@@H](O)C2(F)F)c(=O)n1` [GEMCITABINE] is higher in pEC50: less than 4.00 for the first, 10.52 for the second.
